The results in this text go back to ChEMBL document CHEMBL1201862, “PubChem BioAssay data set” (2004).

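In this assay, cells in 96-well plates receive the compound at five concentrations for 48 hours. Endpoints are linearly interpolated between the surrounding concentrations. GI50: concentration for 50% inhibition of growth.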 Activity calls are given as the source filed them. Cut-off read from the data, not from the text of the source: active = GI50 up to about 1.1 µM and inactive = higher.

Test systems include A498; A549; ACHN; EKVX; HCC 2998; HCT-15; HOP-92; Hs-578T; LOX IMVI; MDA-MB-435; NCI-H23; OVCAR-5; SF-295; SK-MEL-5; SNB-75; TK-10; OVCAR-4; SK-MEL-2; U-251.
Common to all, as to assay: NCI tumour cell line growth inhibition, 48 h

On to `CCOC(=O)c1nc2ccc(C(F)(F)F)cc2nc1Nc1ccc(Cl)c(Cl)c1`, for which the GI50 in the assay on A498 is > 100 µM (inactive); in the assay on A549 it was 67.8 µM (inactive); with ACHN it was 97.1 µM (inactive); with EKVX it was > 100 µM (inactive); in the assay with HCC 2998, 39.5 µM (inactive); in the assay on HCT-15, 94.4 µM. The GI50 in the assay on HOP-92 was > 100 µM (inactive); with Hs-578T, 97.3 µM (inactive); in the assay with LOX IMVI, > 100 µM (inactive); with MDA-MB-435 it was > 100 µM (inactive); with NCI-H23 it was > 100 µM (inactive); in the assay on OVCAR-5, > 100 µM (inactive). Besides, the GI50 with SF-295 was 30.3 µM (inactive); in the assay on SK-MEL-5 it was > 100 µM (inactive); with SNB-75 it was 48.8 µM (inactive); with TK-10, > 100 µM (inactive).
Take `Cc1ccc(C(=O)N(Cc2ccccc2)Cc2ccccc2)cc1/N=N/N(C)C`: the GI50 in the assay with A549 is 17.5 µM (inactive); with ACHN it was 7.01 µM (inactive); with EKVX, 35.3 µM (inactive); in the assay with HCC 2998, 29.6 µM (inactive); with HCT-15, 17.3 µM; in the assay on HOP-92 it was 11.9 µM (inactive). In addition, the GI50 in the assay on Hs-578T is 19.3 µM (inactive); in the assay on LOX IMVI it was 7.23 µM (inactive); in the assay with MDA-MB-435 it was 22.4 µM (inactive); in the assay with NCI-H23 it was 11.2 µM (inactive); with OVCAR-4, 11.2 µM (inactive); with OVCAR-5, 39.2 µM (inactive). Besides, the GI50 in the assay on SF-295 was 9.29 µM (inactive); in the assay with SK-MEL-2 it was 3.08 µM (inactive); with SK-MEL-5, 10.7 µM (inactive); in the assay with TK-10, 33 µM (inactive); in the assay on U-251, 37.8 µM (inactive).
Take `CC(=N\N)/C(C)=N/N=C(C)/C(C)=N/N=C(C)/C(C)=N/N=C(C)/C(C)=N/N`: the GI50 in the assay on A498 was > 100 µM (inactive); in the assay on A549 it was > 100 µM (inactive); in the assay on EKVX, > 100 µM (inactive); in the assay on HCC 2998 it was > 100 µM (inactive); in the assay on HCT-15, greater than 100 µM; with HOP-92, 0.316 µM (active). Further, the GI50 in the assay with Hs-578T is > 100 µM (inactive); with LOX IMVI, > 100 µM (inactive); in the assay on MDA-MB-435, > 100 µM (inactive); in the assay with NCI-H23, 66.8 µM (inactive); with OVCAR-4 it was > 100 µM (inactive); with OVCAR-5, > 100 µM (inactive). Also, the GI50 with SF-295, in the assay on SK-MEL-2, in the assay on SK-MEL-5, in the assay with SNB-75, in the assay on TK-10 and in the assay on U-251 was > 100 µM (inactive) throughout.
In the case of `Clc1cccc(/N=C/C=C/Nc2cccc(Cl)c2)c1`, the GI50 was 22.9 µM (inactive) in the assay with A498; 28.5 µM (inactive) with A549; > 10 µM (inactive) in the assay on ACHN; > 10 µM (inactive) with EKVX; 11.9 µM (inactive) in the assay on HCC 2998; 17.8 µM with HCT-15. For the same molecule, the GI50 with HOP-92 was 42.5 µM (inactive); with Hs-578T, 29.8 µM (inactive); in the assay with LOX IMVI, 6.32 µM (inactive); with MDA-MB-435, 15.6 µM (inactive); in the assay on NCI-H23 it was 21.3 µM (inactive); with OVCAR-4, 40.4 µM (inactive). The GI50 is 24.8 µM (inactive) in the assay with OVCAR-5; 12.1 µM (inactive) with SF-295; 16.8 µM (inactive) in the assay on SK-MEL-5; > 10 µM (inactive) in the assay with SNB-75; 37.8 µM (inactive) in the assay on TK-10; 16.5 µM (inactive) with U-251.
Take `COc1cccc2cc(C(N)=O)c(=N)oc12`: the GI50 in the assay on A498 was > 100 µM (inactive); in the assay on A549 it was 50.5 µM (inactive); with ACHN, 40.3 µM (inactive); in the assay with EKVX it was 29.2 µM (inactive); in the assay with HCC 2998, 41.3 µM (inactive); in the assay with HCT-15, 52.6 µM. Moreover, the GI50 is 81.8 µM (inactive) in the assay on HOP-92; 31.5 µM (inactive) in the assay with Hs-578T; 30.7 µM (inactive) in the assay with LOX IMVI; 42.3 µM (inactive) with MDA-MB-435; 48.4 µM (inactive) in the assay with NCI-H23; 53.5 µM (inactive) in the assay with OVCAR-4. Moreover, the GI50 was 51.3 µM (inactive) with OVCAR-5; 22.9 µM (inactive) in the assay with SK-MEL-2; 49.2 µM (inactive) in the assay on SK-MEL-5; 63.2 µM (inactive) in the assay on SNB-75; 81.5 µM (inactive) in the assay with U-251.
For `CC(=O)O[C@H]1C[C@](C)(O)[C@@]23CC([C@@H](OC(=O)C(C)(C)O)[C@@H](OC(C)=O)C2(COC(=O)c2ccccc2)[C@H]1OC(C)=O)C(C)(C)O3` (some centres not stated), the GI50 in the assay on A498 is > 100 µM (inactive); with A549, 47.8 µM (inactive); with ACHN, > 100 µM (inactive); with EKVX, > 100 µM (inactive); with HCC 2998 it was > 100 µM (inactive); in the assay with HCT-15 it was greater than 100 µM. The GI50 is 60.3 µM (inactive) with HOP-92; > 100 µM (inactive) in the assay on Hs-578T; 61.5 µM (inactive) with LOX IMVI; > 100 µM (inactive) with MDA-MB-435; > 100 µM (inactive) with NCI-H23; > 100 µM (inactive) in the assay on OVCAR-4. Also, the GI50 was > 100 µM (inactive) in the assay with OVCAR-5; 84.3 µM (inactive) with SF-295; 86.5 µM (inactive) in the assay on SK-MEL-2; 77.6 µM (inactive) in the assay on SK-MEL-5; > 100 µM (inactive) in the assay with TK-10; 33.4 µM (inactive) in the assay on U-251.
Take `N#CCCC1C(C#N)C2CC1C1C3C=CC(C3)C21` (configuration not stated): the GI50 was > 100 µM (inactive) with A549; > 100 µM (inactive) in the assay with ACHN; > 100 µM (inactive) in the assay with EKVX; > 100 µM (inactive) in the assay on HCC 2998; greater than 100 µM in the assay with HCT-15; > 100 µM (inactive) in the assay on HOP-92. In addition, the GI50 in the assay on Hs-578T, in the assay with LOX IMVI, in the assay on MDA-MB-435, in the assay on NCI-H23, in the assay on OVCAR-4 and in the assay on OVCAR-5 was > 100 µM (inactive) each time. Also, the GI50 in the assay with SF-295, in the assay on SK-MEL-2, in the assay on SK-MEL-5, in the assay with SNB-75 and in the assay on TK-10 was > 100 µM (inactive) in each case.
With `CC1(C)C2CC(c3ccncc3)ON2C(C)(C)N1O` (configuration not stated), the GI50 with A549 is > 100 µM (inactive); in the assay with ACHN it was > 100 µM (inactive); in the assay with EKVX, > 100 µM (inactive); in the assay on HCC 2998, > 100 µM (inactive); in the assay on HCT-15 it was greater than 100 µM; in the assay with HOP-92, > 100 µM (inactive). The GI50 in the assay on Hs-578T, in the assay with LOX IMVI, in the assay with MDA-MB-435, in the assay on NCI-H23, in the assay on OVCAR-4 and with OVCAR-5 was > 100 µM (inactive) throughout. For the same molecule, the GI50 in the assay on SF-295, in the assay on SK-MEL-2, in the assay with SK-MEL-5, in the assay on SNB-75, with TK-10 and with U-251 was > 100 µM (inactive) each time.
Take `COC1=CC(=O)c2c(cc(COP(=O)(OCC3OC(n4cc(F)c(=O)[nH]c4=O)CC3O)N(C)CCCCCl)n2C)C1=O` (configuration not stated): the GI50 was < 0.01 µM (active) in the assay on A549; < 0.01 µM (active) in the assay on ACHN; 3.86 µM (inactive) in the assay with EKVX; < 0.01 µM (active) in the assay with HCC 2998; 7.55 µM in the assay on HCT-15; 0.137 µM (active) with HOP-92. In addition, the GI50 in the assay with Hs-578T was 0.0877 µM (active); in the assay with LOX IMVI, 0.0148 µM (active); in the assay with MDA-MB-435 it was 1.04 µM (active); in the assay with NCI-H23, 0.142 µM (active); with OVCAR-4, 1.82 µM (inactive); with OVCAR-5 it was 7.45 µM (inactive). Besides, the GI50 in the assay on SF-295 is < 0.0132 µM (active); in the assay with SK-MEL-2, 17.7 µM (inactive); with SK-MEL-5, 0.0329 µM (active); with SNB-75 it was < 0.0124 µM (active); in the assay with TK-10, 1.81 µM (inactive); with U-251 it was 0.409 µM (active).
As for `Cc1nc2sccn2c1C(=O)OCCOCCOCCOCCOC(=O)c1c(C)nc2sccn12`, the GI50 in the assay with A498 was > 100 µM (inactive); with A549, > 100 µM (inactive); in the assay on ACHN, > 100 µM (inactive); in the assay with EKVX it was 32.1 µM (inactive); with HCC 2998, > 100 µM (inactive); in the assay on HCT-15 it was greater than 100 µM. Further, the GI50 with HOP-92 was > 100 µM (inactive); in the assay with Hs-578T it was > 100 µM (inactive); in the assay on LOX IMVI, 57.3 µM (inactive); in the assay with MDA-MB-435, 45.4 µM (inactive); with NCI-H23, 19.5 µM (inactive); with OVCAR-4, 71.8 µM (inactive). The GI50 with OVCAR-5 is > 100 µM (inactive); in the assay on SF-295 it was 63.4 µM (inactive); with SK-MEL-2, 76.4 µM (inactive); in the assay on SK-MEL-5 it was 11.7 µM (inactive); in the assay on TK-10, > 100 µM (inactive); in the assay on U-251, > 100 µM (inactive).
Turning to `C[C@]12CC[C@H](O)CC1=CC[C@@H]1[C@@H]2CC[C@]2(C)C(=O)/C(=C/c3ccc([N+](=O)[O-])cc3)C[C@@H]12`, the GI50 was 13.5 µM (inactive) with A498; 13.3 µM (inactive) with A549; 13.2 µM (inactive) in the assay on ACHN; 8.91 µM (inactive) in the assay on EKVX; 20 µM (inactive) with HCC 2998; 28.8 µM in the assay with HCT-15. The GI50 is 9.16 µM (inactive) with HOP-92; 7.83 µM (inactive) in the assay on Hs-578T; 10 µM (inactive) in the assay with LOX IMVI; 52.5 µM (inactive) with MDA-MB-435; 18.8 µM (inactive) in the assay on NCI-H23; 8 µM (inactive) with OVCAR-4. Further, the GI50 in the assay with OVCAR-5 was 19.2 µM (inactive); with SF-295 it was 6.65 µM (inactive); with SK-MEL-2 it was 17.7 µM (inactive); in the assay with SK-MEL-5, 16.3 µM (inactive); in the assay on SNB-75, 3.52 µM (inactive).
